Results published in ChEMBL document CHEMBL1158671, “Microbial transformations of hypolipemic E-guggulsterone” (J Nat Prod, 1998).
Active and inactive are the calls of the source. No cut-off for these calls is given here.

How the values were obtained:
Shigella boydii = test: Antibacterial activity against Shigella boydii; type: functional, organism-based
Escherichia coli = test: Antibacterial activity against Escherichia coli; type: functional, organism-based
[1] = system: Corynebacterium diphtheriae; test: Antibacterial activity against Corynebacterium diphtheriae; type: functional, organism-based
Pseudomonas aeruginosa = test: Antibacterial activity against Pseudomonas aeruginosa; type: functional, organism-based
NCI-H226 = test: Cytotoxicity against human NCI-H226 cells; type: functional, cell-based

Compound	Activity (Shigella boydii)	Activity (Escherichia coli)	Activity [1]	Activity (Pseudomonas aeruginosa)	Activity (NCI-H226)
C/C=C1/C(=O)C[C@H]2[C@@H]3[C@@H](O)CC4=CC(=O)CC[C@]4(C)[C@H]3CC[C@]12C	Active	Active	Active	Active	
C/C=C1/C(=O)C[C@H]2[C@@H]3CCC4=CC(=O)CC[C@]4(C)[C@H]3CC[C@]12C	inactive	inactive	inactive	inactive	Active
